Laboratory results reported in patent US7750003B2, “Compounds-943” (AstraZeneca AB, priority 2006, dated 2010).

target: recombinant mTOR (FLAG-tagged, residues 1362-2549) (Homo sapiens, UniProt P42345); test: In vitro mTOR kinase assay (Test (a), AlphaScreen); type: biochemical; settings: ATP 20 μM, read-out: Test (a): IC50 versus mTOR kinase
Experimental: (a) In Vitro mTOR Kinase Assay
Following expression in the mammalian HEK293 cell line, expressed protein was purified using the FLAG epitope tag using standard purification techniques.
Aliquots (2 μl) of each compound dilution were placed into a well of a Greiner 384-well low volume (LV) white polystyrene plate (Greiner Bio-one).
These assay solutions were incubated for 2 hours at room temperature.
The resultant signals arising from laser light excitation at 680 nm were read using a Packard Envision instrument.
The phosphorylated biotinylated peptide that is associated with AlphaScreen Streptavidin donor beads forms a complex with the p70 S6 Kinase (T389) 1A5 Monoclonal Antibody that is associated with Alphascreen Protein A acceptor beads. Upon laser light excitation at 680 nm, the donor bead: acceptor bead complex produces a signal that can be measured. Accordingly, the presence of mTOR kinase activity results in an assay signal. In the presence of an mTOR kinase inhibitor, signal strength is reduced.
mTOR enzyme inhibition for a given test compound was expressed as an IC50 value.

Sequence of recombinant mTOR (FLAG-tagged, residues 1362-2549) (P42345 1362-2549): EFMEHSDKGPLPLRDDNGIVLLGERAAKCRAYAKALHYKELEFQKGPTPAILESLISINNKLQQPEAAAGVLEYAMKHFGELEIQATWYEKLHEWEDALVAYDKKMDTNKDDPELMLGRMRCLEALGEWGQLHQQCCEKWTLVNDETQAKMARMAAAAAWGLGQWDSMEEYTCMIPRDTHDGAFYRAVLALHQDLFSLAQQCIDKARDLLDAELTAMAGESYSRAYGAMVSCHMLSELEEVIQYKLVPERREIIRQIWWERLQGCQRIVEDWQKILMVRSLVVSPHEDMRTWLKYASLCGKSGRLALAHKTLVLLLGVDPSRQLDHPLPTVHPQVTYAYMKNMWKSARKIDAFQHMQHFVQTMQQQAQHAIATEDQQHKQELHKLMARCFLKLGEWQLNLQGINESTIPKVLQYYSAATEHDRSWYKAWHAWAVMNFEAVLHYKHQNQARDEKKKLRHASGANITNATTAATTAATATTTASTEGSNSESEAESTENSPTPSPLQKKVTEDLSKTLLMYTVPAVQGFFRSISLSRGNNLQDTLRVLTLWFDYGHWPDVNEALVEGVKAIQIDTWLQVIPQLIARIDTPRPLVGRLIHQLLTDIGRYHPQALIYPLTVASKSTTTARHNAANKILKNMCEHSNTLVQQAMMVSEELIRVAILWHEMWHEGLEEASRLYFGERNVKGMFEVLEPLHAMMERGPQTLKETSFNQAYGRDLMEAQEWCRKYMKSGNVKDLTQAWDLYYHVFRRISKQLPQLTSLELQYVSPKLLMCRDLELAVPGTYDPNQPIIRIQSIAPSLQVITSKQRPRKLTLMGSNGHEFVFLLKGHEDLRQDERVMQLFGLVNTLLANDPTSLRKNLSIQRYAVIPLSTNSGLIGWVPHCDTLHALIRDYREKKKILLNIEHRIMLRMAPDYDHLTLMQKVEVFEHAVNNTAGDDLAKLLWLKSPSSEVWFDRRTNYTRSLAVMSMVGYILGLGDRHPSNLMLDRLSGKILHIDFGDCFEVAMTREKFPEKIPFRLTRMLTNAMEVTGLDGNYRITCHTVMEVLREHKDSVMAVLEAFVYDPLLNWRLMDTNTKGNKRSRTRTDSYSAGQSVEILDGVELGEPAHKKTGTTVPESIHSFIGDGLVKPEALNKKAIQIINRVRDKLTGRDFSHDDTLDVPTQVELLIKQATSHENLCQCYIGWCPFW

Compound | IC50 [nM]
CS(=O)(=O)Cc1cc(N2CCOCC2)nc(-c2ccc(NC(=O)Nc3ccc(Cl)cc3)cc2)n1 [Example 7b, 3-(4-chlorophenyl)-1-[4-[4-(methylsulfonylmethyl)-6-morpholin-4-yl-pyrimidin-2-yl]phenyl]urea] | 420
CS(=O)(=O)Cc1cc(N2CCOCC2)nc(-c2ccc(NC(=O)Nc3ccc(C(F)(F)F)cc3)cc2)n1 [Example 7c, 1-[4-[4-(methylsulfonylmethyl)-6-morpholin-4-yl-pyrimidin-2-yl]phenyl]-3-[4-(trifluoromethyl)phenyl]urea] | 1700
Cc1cc(C)cc(NC(=O)Nc2ccc(-c3nc(CS(C)(=O)=O)cc(N4CCOCC4)n3)cc2)c1 [Example 7d, 1-(3,5-dimethylphenyl)-3-[4-[4-(methylsulfonylmethyl)-6-morpholin-4-yl-pyrimidin-2-yl]phenyl]urea] | 2600
CS(=O)(=O)Cc1cc(N2CCOCC2)nc(-c2ccc(NC(=O)Nc3ccccc3OC(F)F)cc2)n1 [Example 7e, 3-[2-(difluoromethoxy)phenyl]-1-[4-[4-(methylsulfonylmethyl)-6-morpholin-4-yl-pyrimidin-2-yl]phenyl]urea] | 2600
CS(=O)(=O)Cc1cc(N2CCOCC2)nc(-c2ccc(NC(=O)Nc3ccc(F)c(Cl)c3)cc2)n1 [Example 7g, 3-(3-chloro-4-fluoro-phenyl)-1-[4-[4-(methylsulfonylmethyl)-6-morpholin-4-yl-pyrimidin-2-yl]phenyl]urea] | 1300
CS(=O)(=O)Cc1cc(N2CCOCC2)nc(-c2ccc(NC(=O)Nc3ccccc3)cc2)n1 [Example 7h, 1-[4-[4-(methylsulfonylmethyl)-6-morpholin-4-yl-pyrimidin-2-yl]phenyl]-3-phenyl-urea] | 240
CCCCCNC(=O)Nc1ccc(-c2nc(CS(C)(=O)=O)cc(N3CCOCC3)n2)cc1 [Example 7j, 3-[4-[4-(methylsulfonylmethyl)-6-morpholin-4-yl-pyrimidin-2-yl]phenyl]-1-pentyl-urea] | 1900
CS(=O)(=O)Cc1cc(N2CCOCC2)nc(-c2ccc(NC(=O)Nc3ccc(F)c(F)c3)cc2)n1 [Example 7k, 3-(3,4-difluorophenyl)-1-[4-[4-(methylsulfonylmethyl)-6-morpholin-4-yl-pyrimidin-2-yl]phenyl]urea] | 720
CS(=O)(=O)Cc1cc(N2CCOCC2)nc(-c2ccc(NC(=O)NC3CCCCC3)cc2)n1 [Example 7l, 3-cyclohexyl-1-[4-[4-(methylsulfonylmethyl)-6-morpholin-4-yl-pyrimidin-2-yl]phenyl]urea] | 7000
CCCNC(=O)Nc1ccc(-c2nc(CS(C)(=O)=O)cc(N3CCOCC3)n2)cc1 [Example 7n, 3-[4-[4-(methylsulfonylmethyl)-6-morpholin-4-yl-pyrimidin-2-yl]phenyl]-1-propyl-urea] | 200
CCc1cccc(NC(=O)Nc2ccc(-c3nc(CS(C)(=O)=O)cc(N4CCOCC4)n3)cc2)c1 [Example 7o, 1-(3-ethylphenyl)-3-[4-[4-(methylsulfonylmethyl)-6-morpholin-4-yl-pyrimidin-2-yl]phenyl]urea] | 1700
CS(=O)(=O)Cc1cc(N2CCOCC2)nc(-c2ccc(NC(=O)NCc3ccco3)cc2)n1 [Example 7p, 3-(2-furylmethyl)-1-[4-[4-(methylsulfonylmethyl)-6-morpholin-4-yl-pyrimidin-2-yl]phenyl]urea] | 3800
CS(=O)(=O)Cc1cc(N2CCOCC2)nc(-c2ccc(NC(=O)NCCc3cccs3)cc2)n1 [Example 7q, 1-[4-[4-(methylsulfonylmethyl)-6-morpholin-4-yl-pyrimidin-2-yl]phenyl]-3-(2-thiophen-2-ylethyl)urea] | 1700
CS(=O)(=O)Cc1cc(N2CCOCC2)nc(-c2ccc(NC(=O)Nc3cccs3)cc2)n1 [Example 7r, 1-[4-[4-(methylsulfonylmethyl)-6-morpholin-4-yl-pyrimidin-2-yl]phenyl]-3-thiophen-2-yl-urea] | 190
